This note sets out measurements from US9962383B2, “Compounds, compositions and methods of agelastatin alkaloids” (Massachusetts Institute of Technology, priority 2013, dated 2018).

In data set [1] the test system is U-937. As to the kind of experiment: 48-hour IC50 by MTS, U-937 lymphoma cells. The data set is classed as cell-based, human. On the procedure: (§1) Cells were grown in media supplemented with fetal bovine serum (FBS) and antibiotics (100 μg/mL penicillin and 100 U/mL streptomycin). […] Cells were incubated at 37° C. in a 5% CO2, 95% humidity atmosphere.
(§2) In a 96-well plate, compounds were pre-added as DMSO stocks (1% final) in triplicate to achieve final concentrations of 1 nM to 10 μM on a half log scale. DMSO and cell-free wells served as the live and dead control, respectively. […] IC50 values were determined from three or more independent experiments using TableCurve (San Jose, Calif.).

The subject of data set [2] is HeLa. Description: 48-hour IC50 by SRB, HeLa cervical carcinoma cells. The data set is classed as cell-based, human. The protocol: as §1
(§3) Adherent cells (HeLa, A549, BT549, and IMR90) were added into 96-well plates (5,000 cells/well for HeLa cell line; 2,000 cells/well for A549, BT549, and IMR90 cell lines) in 100 μL media and were allowed to adhere for 2-3 hours. Compounds were solubilized in DMSO as 100× stocks, added directly to the cells (100 μL final volume), and tested over a range of concentrations (1 nM to 10 μM) in triplicate (1% DMSO final) on a half-log scale. DMSO and cell-free wells served as the live and dead control, respectively. […] Briefly, media was removed from the plate, and cells were fixed by the addition of 100 μL cold 10% trichloroacetic acid in water. After incubating at 4° C. for 1 h, the plates were washed in water and allowed to dry. Sulforhordamine B was added as a 0.057% solution in 1% acetic acid (100 μL), and the plates were incubated at room temperature for 30 min, washed in 1% acetic acid, and allowed to dry. […] IC50 values were determined from three or more independent experiments using TableCurve (San Jose, Calif.).

The subject of data set [3] is A549. Description: 48-hour IC50 by SRB, A549 non-small cell lung carcinoma cells. The data set is classed as cell-based, human. On the procedure:
as §1, §3

The subject of data set [4] is BT549. As to the kind of experiment: 48-hour IC50 by SRB, BT549 breast carcinoma cells. The data set is classed as cell-based, human. The protocol:
as §1, §3

The test system of data set [5] is IMR90. Description: 48-hour IC50 by SRB, IMR90  lung fibroblasts. The data set is classed as cell-based, human. The settings on record: IMR90 immortalized lung fibroblasts. The protocol:
as §1, §3

The subject of data set [6] is Jurkat. As to the kind of experiment: 48-hour IC50 by MTS, Jurkat acute T-cell leukemia cells. The data set is classed as cell-based, human. On the procedure:
as §1, §2

For data set [7], the system named is Daudi. As to the kind of experiment: 48-hour IC50 by MTS, Daudi Burkitt's lymphoma cells. The data set is classed as cell-based, human. The protocol:
as §1, §2

The subject of data set [8] is HL-60. As to the kind of experiment: 48-hour IC50 by MTS, HL-60 acute promyelocytic leukemia cells. The data set is classed as cell-based, human. On the procedure:
as §1, §2

Data set [9] deals with CA46. As to the kind of experiment: 48-hour IC50 by MTS, CA46 Burkitt's lymphoma cells. The data set is classed as cell-based, human. On the procedure:
as §1, §2

For data set [10], the system named is Human Erythrocytes. As to the kind of experiment: Hemolysis assay using human erythrocytes. The data set is classed as cell-based. The conditions noted are these: hemolysis after 2 h. The protocol:
FIG. 1. Hemolytic activity of (−)-agelastatins A-F and advanced intermediates. Compounds were tested at 333 μM and hemolysis was evaluated after 2 h. DMSO and water served as the negative and positive controls for hemolysis, respectively. Error bars represent standard deviation of the mean, n=3.
To prepare the erythrocytes, 0.1 mL of human blood was centrifuged (10,000 g, 2 min). The pellet was washed three times with saline (0.9% NaCl) via gentle resuspension and centrifugation (10,000 g, 2 min). Following the final wash, the erythrocytes were resuspended in 0.4 mL red blood cell (RBC) buffer (10 mM Na2HPO4, 150 mM NaCl, 1 mM MgCl2, pH 7.4).
DMSO stocks of compounds were added to 0.5 mL tubes in singlicate (1 μL, 3.3% DMSO final). The stocks were diluted with 19 μL RBC buffer. Positive control tubes contained DMSO in water, and negative control tubes contained DMSO in RBC buffer. A suspension of washed erythrocytes (10 μL) was added to each tube, and samples were incubated at 37° C. for 2 hours. Samples were centrifuged (10,000 g, 2 min), and the supernatant was transferred to a clear, sterile 384-well plate. The absorbance of the supernatants was measured at λ=540 nm, and percent hemolysis was calculated relative to the average absorbance values measured for the controls.

The subject of data set [11] is U-937 cells. Description: Apoptosis in U-937 cells with Annexin V-FITC and propidium iodide. The data set is classed as cell-based, human. The settings on record: 21 hours, flow cytometry. On the procedure: FIG. 3. […] Analysis of phosphatidylserine exposure and propidium iodide inclusion at 21 hours in U-937 cells. Compounds were tested at indicated concentrations and STS was used as a positive control for apoptosis. Samples were analyzed by flow cytometry for the relative timing of phosphatidylserine exposure relative to PI inclusion. FITC=fluorescein isothiocyanate; PI=propidium iodide; STS=staurosporine.
DMSO stocks of compounds were added to a 24-well plate in singlicate (0.2% DMSO final). […] Following treatment, the cell suspensions were transferred to flow cytometry tubes and pelleted (500 g, 3 min). The media was removed by aspiration, and cells were resuspended in 200 μL AnnV binding buffer (10 mM HEPES, pH 7.4, 140 mM NaCl, 2.5 mM CaCl2) with 5 μg/mL PI and 1:90 dilution of AnnV. Samples were analyzed using flow cytometry.
Background: Flow cytometry measures light scatter and fluorescence of single cells or particles in a stream.

In data set [12] the test system is blood cancer cells. Description: Activity against human blood cancer cell lines. The data set is classed as cell-based. The protocol:
Based on the surprising and exceptional potency of (−)-agelastatins A (1) and D (4) against U-937 cells relative to the other cell lines tested, five additional blood cancer cell lines were tested for their sensitivity to the agelastatin alkaloids. These cell lines spanned a variety of cancer types (CEM, acute lymphoblastic leukemia; Jurkat, acute T-cell leukemia; Daudi, Burkitt's lymphoma; HL-60, acute promyelocytic leukemia; CA46, Burkitt's lymphoma). After a 48-hour incubation, the ability of (−)-agelastatins A-F (1-6) to induce cell death was evaluated. […] The same trends in potency observed for the various agelastatins with the general cell panel (Table 3) were also observed.
In a 96-well plate, compounds were pre-added as DMSO stocks (1% final) in triplicate to achieve final concentrations of 1 nM to 10 μM on a half log scale. DMSO and cell-free wells served as the live and dead control, respectively. […] After 48 h, cell viability was assessed by adding 20 μL of a PMS/MTS solution (A. H. Cory, T. C. Owen, J. A. Barltrop, J. G. Cory, Cancer Commun., 1991, 3, 207) to each well, allowing the dye to develop at 37° C. until the live control had processed MTS, and reading the absorbance at λ=490 nm. IC50 values were determined from three or more independent experiments using TableCurve (San Jose, Calif.).

For the compound `CN1C(=O)N[C@H]2[C@@H]3NC(=O)c4ccc(Br)n4[C@@H]3C[C@]21O` [(−)-1, (−)-agelastatin A], the IC50 amounted to 67 ± 3 nM in data set [1]; 708 ± 90 nM in data set [2]; 1050 ± 140 nM in [3]; 278 ± 76 nM in data set [4]; 1110 ± 350 nM in [5]; 74 ± 7 nM in data set [6]. Further, the IC50 in [7] was 20 ± 3 nM; in [8], 138 ± 66 nM; in data set [9], 187 ± 71 nM; in [12] (range over blood cancer cell lines, read-out: potency against blood cancer cells), 20 to 190 nM. The “nonspecific hemolysis of red blood cells” value in data set [10] (compounds at 333 μM) was “none”. Further, the “concentration without affecting normal red blood cells” value in data set [10] was over 333 µM. Also, in data set [11], the “apoptosis (phosphatidylserine exposure and propidium iodide inclusion)” value was “induced dose-dependent apoptosis”. Further, the “sensitivity of five additional blood cancer cell lines, in words” value in [12] (CEM, Jurkat, Daudi, HL-60, CA46, 48-hour incubation) is given as “remarkable sensitivity”.
